The values below come from patent US20070105931A1, “Methods and compositions for inhibiting the proliferation of prostate cancer cells” (Mayo Foundation for Medical Education and Research, priority 2003, published 2007).

As a reminder, the IC50 is the concentration that inhibits the measured activity by half. The low end stands for greater potency, the high end for weaker potency.

The subject of one experiment is LNCaP cells. The experiment is described as follows: Growth response (MTS cell proliferation assay), LNCaP. It is filed as cell-based, human. Conditions: MTS assay 6 days after treatment. The protocol: (§1) Human prostate cancer cell lines LNCaP (American Type Culture Collection, Manassas, Va.) and LAPC-4 (kindly provided by Dr. Charles L. Sawyers; Zhu et al., 1999, Endocrinology, 140:5451-4) were maintained in RPMI 1640 (Mediatech, Hercules, Calif.) containing 5% FBS (Biofluids, Rockville, Md.) at 37° C. and 5% CO2. To avoid potential interference of existing steroids in FBS, the media were first replaced by serum-free RPMI 1640 for 24 h. Cells were then cultured in RPMI 1640 with 5% charcoalstripped FBS supplemented with or without 1 nM Mib (New England Nuclear, Boston, Mass.), a nomnetabolizable, synthetic androgen.
(§2) Cells were plated in 24-well plates at 2×10^4 cells/well. […] MTS assay (Promega, Madison, Wis.) was performed to determine cell proliferation 6 days after the treatment. To measure secreted PSA and hK2 levels, 400 μl of spent medium from cells treated for 6 days were collected. PSA and hK2 proteins levels were determined using specific immunoassays (Mayo Immunochemical Core Facility). These measurements were used to the calculate 50% inhibitory concentration (IC50) of each of the NSAIDs.
(In general: Formazan colour is commonly taken as a measure of viable cells.)

Experiment [1] deals with PSA. The experiment is described as follows: Secreted PSA protein level (immunoassay), LNCaP. Type of experiment: cell-based, human. The note with it: for IC50: LNCaP cells, secreted PSA in spent medium, treated 6 days. Here is the method:
(§3) FIG. 1 is a graph showing the effects of NSAIDs on the expression of PSA and hK2 proteins in prostate cancer cells ±1 nM Mib. […] PSA and hK2 values were normalized to growth response measured by a 3-(4,5-dimethylthiazol-2-yl)-2,5-diphenyltetrazolium bromide assay and expressed as a percentage of that group treated with Mib only. Error bars indicate the SE of four separate experiments.
as §1, §2

In experiment [2] the test system is hK2. The experiment is described as follows: Secreted hK2 protein level (immunoassay), LNCaP. Type of experiment: cell-based, human. The note with it: for IC50: LNCaP cells, secreted hK2 in spent medium, treated 6 days. Here is the method:
as §3, §1, §2

A further experiment has as its system LAPC-4 cells. The experiment is described as follows: Growth response (MTS cell proliferation assay), LAPC-4. It is filed as cell-based, human. The note with it: MTS assay 6 days after treatment. Here is the method: as §1, §2
Experiment [3] concerns PSA. The experiment in a line: Secreted PSA protein level (immunoassay), LAPC-4. It is filed as cell-based, human. The note with it: LAPC-4 cells, secreted PSA in spent medium, treated 6 days. The protocol: as §3, §1, §2
Experiment [4] relates to hK2. The experiment is described as follows: Secreted hK2 protein level (immunoassay), LAPC-4. Conditions: LAPC-4 cells, secreted hK2 in spent medium, treated 6 days. Type of experiment: cell-based, human. The protocol: as §3, §1, §2
The next experiment has as its system FKBP51. The experiment in a line: Western blot of androgen-up-regulated FKBP51 protein. It is filed as cell-based, human. The note with it: 1 nM Mib. Here is the method: (§4) Cells were seeded at 1×10^5 cells/plate in 100 mm dishes. […] The cells were collected by centrifugation and washed with nimesulide for 15 or 24 h. The cells were collected by centrifugation and washed with cold PBS. Cell lysates were prepared in radioimmunoprecipitation assay buffer (PBS containing 1% NP40, 0.5% sodium deoxycholate, 0.1% SDS plus freshly added protease inhibitors, 100 μg/ml phenylmethylsulfonyl fluoride, 30 μl/ml aprotinin, and 1 mM sodium orthovanadate) and used for Western blot analysis. The sample filters were immunoblotted with c-Jun, phospho-c-Jun (Cell Signaling, Beverly, Mass.), AR (PharMingen, San Diego, Calif.), and FKBP51 (a gift from Dr. D. O. Toft; Mayo Clinic) specific primary antibodies and horseradish peroxidase-conjugated secondary antibodies and visualized by enhanced chemiluminescence (Amersham Pharmacia, Piscataway, N.J.).
Background: In western blotting, separated proteins are transferred to a membrane and probed.

A further experiment concerns AR. The experiment in a line: Western blot of AR protein expression. Conditions: concentrations used in the transfections. It is filed as cell-based, human. Here is the method:
as §4

A further experiment concerns c-Jun. The experiment is described as follows: Western blot of c-Jun protein in LNCaP cells. It is filed as cell-based, human. The note with it: 24 h of treatment. The protocol:
as §4

A further experiment deals with androgen receptor. The experiment is described as follows: IL6-activated hK2 ARE-SV40-pGL3 reporter, transient transfection. Conditions: celecoxib 50 μM, nimesulide 100 μM; IL6 50 ng/ml; androgen 1 nM. It is filed as cell-based, human. The protocol:
Experiments were performed to determine whether or not IL6 increased expression of PSA and/or hK2.

Experiment [5] concerns STAT3. The experiment in a line: Western blot of STAT3 and phosphorylated STAT3 in IL6-treated LNCaP cells. It is filed as cell-based, human. The protocol:
Experiments were then performed to determine if STAT3 is phosphorylated following exposure to IL6.
The same cells were treated with 50 μM of a potent phosphatase inhibitor, peroxovanadate (POV), to determine if the nimesulide-mediated inhibition of phosphorylation of STAT3 by IL6 was due to activation of one or more phosphatases. […] Therefore, the inhibitory effect of nimesulide on phosphorylation of STAT3 by IL6 may be caused by activation of one or more phosphatases, because the inhibitor could partially reverse the reduced phosphorylation of STAT3 by nimesulide. It was noted that POV alone had no effect on phosphorylation of STAT3 in the absence of IL6.

For experiment [6], the system named is AR/ARE (hK2 3xARE-SV40 minimal promoter). The experiment in a line: hK2 3xARE luciferase reporter assay in LNCaP cells. Conditions: P<0.05, 24 h.
In a further experiment the test system is AR promoter (−1380/+577). The experiment in a line: AR promoter-luciferase reporter assay in LNCaP cells. Conditions: 1 nM Mib, 24 h, FIG. 3A.
Another experiment concerns 6-kb PSA promoter. The experiment in a line: PSA promoter-luciferase reporter assay in LNCaP cells. Conditions: concentration as low as 25 μM, 1 nM Mib, 24 h. On the technique in general: A reporter such as luciferase makes a cellular process visible.
For experiment [7], the system named is STAT3. The experiment in a line: STAT3 responsive element luciferase reporter in LNCaP cells. The note with it: celecoxib 50 μM, nimesulide 100 μM, IL6 25-50 ng/ml, six hours.
[8] abbreviates: FIG. 1, dose-dependent, LNCaP and LAPC-4 cells, 1 nM Mib.

A value given as a limit tells only on which side of the number the result lay.

Turning to `CC(=O)Oc1ccccc1C(=O)O` [Aspirin], the IC50 in the experiment on LNCaP cells (Homo sapiens, 144 h) is greater than 1000 µM; with PSA [1] (Homo sapiens, 144 h) it was greater than 1000 µM; with hK2 [2] (Homo sapiens, 144 h), greater than 1000 µM; with LAPC-4 cells (Homo sapiens, LAPC4, 144 h) it was greater than 1000 µM; with PSA [3] (Homo sapiens, LAPC4, 144 h) it was greater than 1000 µM; in the experiment with hK2 [4] (Homo sapiens, 144 h) it was greater than 1000 µM.
In the case of `Cc1ccc(-c2cc(C(F)(F)F)nn2-c2ccc(S(N)(=O)=O)cc2)cc1` [Celecoxib], the IC50 in the experiment on PSA [1] (Homo sapiens, 144 h) is 20 µM; with hK2 [2] (Homo sapiens, 144 h) it was 29.6 µM; in the experiment on LAPC-4 cells (Homo sapiens, LAPC4, 144 h) it was 44.5 µM; in the experiment with PSA [3] (Homo sapiens, LAPC4, 144 h) it was 28.7 µM; in the experiment on hK2 [4] (Homo sapiens, 144 h) it was 43.7 µM.
Turning to `CC(C(=O)O)c1cccc(Oc2ccccc2)c1` (centres unmarked) [Fenoprofen], the IC50 in the experiment on LNCaP cells (Homo sapiens, 144 h) was greater than 300 µM; with PSA [1] (Homo sapiens, 144 h), 210 µM; in the experiment on hK2 [2] (Homo sapiens, 144 h), 229 µM.
`CC(C(=O)O)c1ccc(-c2ccccc2)c(F)c1` (centres unmarked) [Flurbiprofen]: the 50% inhibitory concentration (IC50) was greater than 300 µM in the experiment with LNCaP cells (Homo sapiens, 144 h); 206 µM with PSA [1] (Homo sapiens, 144 h); 281 µM in the experiment with hK2 [2] (Homo sapiens, 144 h); 347 µM with LAPC-4 cells (Homo sapiens, LAPC4, 144 h); 234 µM with PSA [3] (Homo sapiens, LAPC4, 144 h); 221 µM with hK2 [4] (Homo sapiens, 144 h).
Take `CC(C)Cc1ccc(C(C)C(=O)O)cc1` (centres unmarked) [Ibuprofen]: the IC50 with LNCaP cells (Homo sapiens, 144 h) is greater than 1000 µM; in the experiment with PSA [1] (Homo sapiens, 144 h), 783 µM; with hK2 [2] (Homo sapiens, 144 h), 860 µM; in the experiment with LAPC-4 cells (Homo sapiens, LAPC4, 144 h), 740 µM; in the experiment on PSA [3] (Homo sapiens, LAPC4, 144 h), 870 µM; in the experiment on hK2 [4] (Homo sapiens, 144 h), 803 µM.
`COc1ccc2c(c1)c(CC(=O)O)c(C)n2C(=O)c1ccc(Cl)cc1` [Indomethacin]: the IC50 in the experiment on LNCaP cells (Homo sapiens, 144 h) is greater than 300 µM; in the experiment with PSA [1] (Homo sapiens, 144 h), 224 µM; with hK2 [2] (Homo sapiens, 144 h), 272 µM; with LAPC-4 cells (Homo sapiens, LAPC4, 144 h), 170 µM; with PSA [3] (Homo sapiens, LAPC4, 144 h) it was 203 µM; with hK2 [4] (Homo sapiens, 144 h), 207 µM.
Turning to `CC(C(=O)O)c1cccc(C(=O)c2ccccc2)c1` (centres unmarked) [Ketoprofen], the IC50 in the experiment on LNCaP cells (Homo sapiens, 144 h) is greater than 300 µM; in the experiment on PSA [1] (Homo sapiens, 144 h) it was greater than 300 µM; with hK2 [2] (Homo sapiens, 144 h), greater than 300 µM; in the experiment with LAPC-4 cells (Homo sapiens, LAPC4, 144 h) it was greater than 300 µM; with PSA [3] (Homo sapiens, LAPC4, 144 h), greater than 300 µM; with hK2 [4] (Homo sapiens, 144 h) it was greater than 300 µM.
As for `Cc1cnc(NC(=O)C2=C(O)c3ccccc3S(=O)(=O)N2C)s1` [Meloxicam], the IC50 in the experiment with LNCaP cells (Homo sapiens, 144 h) was 193 µM; in the experiment on PSA [1] (Homo sapiens, 144 h), 300 µM; in the experiment on hK2 [2] (Homo sapiens, 144 h), 377 µM; in the experiment with LAPC-4 cells (Homo sapiens, LAPC4, 144 h) it was 92 µM; in the experiment with PSA [3] (Homo sapiens, LAPC4, 144 h), greater than 300 µM; in the experiment with hK2 [4] (Homo sapiens, 144 h), greater than 300 µM.
Turning to `CS(=O)(=O)Nc1ccc([N+](=O)[O-])cc1Oc1ccccc1` [Nimesulide], the IC50 in the experiment with LNCaP cells (Homo sapiens, 144 h) was 38.2 µM; with PSA [1] (Homo sapiens, 144 h) it was 27 µM; in the experiment on hK2 [2] (Homo sapiens, 144 h), 23 µM; in the experiment on LAPC-4 cells (Homo sapiens, LAPC4, 144 h), 104 µM; in the experiment on PSA [3] (Homo sapiens, LAPC4, 144 h), 76.5 µM; with hK2 [4] (Homo sapiens, 144 h), 61 µM. In addition, in the experiment with PSA [1] (setting [8]), the “expression of PSA” value is given as “suppressed”. In the experiment on hK2 [2] (setting [8]), the “expression of hK2” value was “suppressed”. In the experiment with FKBP51, the “androgen-up-regulated FKBP51 protein expression” value was “alleviated”. Also, in the experiment on AR, the AR protein expression result is “reduced”. In the experiment with c-Jun, the c-Jun protein entry is recorded as “strongly induced”. Further, the “androgen receptor-mediated expression of the reporter gene activated by IL6 or IL6 plus androgen” value in the experiment on androgen receptor is recorded as “inhibit”. The “phosphorylation of STAT3 by IL6” value with STAT3 [5] (celecoxib 50 μM, nimesulide 100 μM, IL6 25-50 ng/ml) is reported as “significantly suppressed”. The “AR/ARE-mediated gene expression (hK2 3xARE reporter)” value in experiment [6] is “significantly reduced”. Moreover, the “transcription activities of the AR promoter (−1380/+577)” value with AR promoter (−1380/+577) was “repressed”. In the experiment with 6-kb PSA promoter, the “androgen-induced PSA promoter activity” value is given as “significantly reduced”. The “STAT3-specific responsive element-mediated luciferase expression activated by IL6” value in the experiment on STAT3 [7] is reported as “inhibited”.
In the case of `CC1=C(CC(=O)O)c2cc(F)ccc2/C1=C\c1ccc(S(C)(=O)=O)cc1` [Sulindac sulfone], the IC50 in the experiment on LNCaP cells is greater than 300 µM; in the experiment on PSA [1], 206 µM; with hK2 [2], 97.6 µM; in the experiment on LAPC-4 cells, 253 µM; in the experiment on PSA [3], 194 µM; in the experiment with hK2 [4], greater than 300 µM.
`CC1=C(CC(=O)O)c2cc(F)ccc2/C1=C\c1ccc([S+](C)[O-])cc1` (centres unmarked) [Sulindac]: the IC50 in the experiment with LNCaP cells (Homo sapiens, 144 h) is greater than 300 µM; in the experiment with PSA [1] (Homo sapiens, 144 h), greater than 300 µM; in the experiment with hK2 [2] (Homo sapiens, 144 h) it was greater than 300 µM; in the experiment on LAPC-4 cells (Homo sapiens, LAPC4, 144 h) it was greater than 300 µM; with PSA [3] (Homo sapiens, LAPC4, 144 h), greater than 300 µM; in the experiment with hK2 [4] (Homo sapiens, 144 h) it was greater than 300 µM.
peroxovanadate [POV]: in the experiment with STAT3 [5] (50 μM POV alone), the “phosphorylation of STAT3 in the absence of IL6” value is “no effect”.
